According to US12408664B2 (priority 2018, dated 2025):
Read-outs that look alike come from different tables or passages of the source.

Legend:
[1] = tested on: G. graminis; experiment: New inoculants in MEB liquid culture amended with calcium propionate; type: cell-based, Gaeumannomyces graminis; conditions: MEB with 1, 2, 5 and 10% (w/v) calcium propionate; five days
Experimental: To examine the effective dose range in liquid culture, malt extract broth (MEB) was prepared and amended with calcium propionate at concentrations of 1, 2, 5 and 10% (w/v). Unamended MEB was used as a control for growth. Each of the four microbes identified in Example 1 was tested twice by inoculating MEB using agarose plugs from luxuriant cultures. Growth was observed over five days. In each microbe examined, visible growth in liquid culture was apparent by day 2 following inoculation with well-established growth by 4 days in the absence of calcium propionate.

[2] = tested on: Fusarium oxysporum; experiment: Golf Course 2: infected live turfgrass, visual detection of Fusarium oxysporum infection; type: in vivo; conditions: 3-4 grams per square meter every 10 days, 5% (w/v) solution sprayed; 10 days following initial application
Experimental: Calcium propionate was dissolved in water to form a 5% (w/v) solution. […] The turfgrass was comprised primarily of Agrostis capillaris. The calcium propionate 5% (w/v) solution was sprayed onto the turfgrass at a concentration of 3-4 grams per square meter every 10 days.

[3] = tested on: M. poae; type: cell-based, Magnaporthe poae; conditions: MEB with 1%, 2%, 5% or 10% (w/v) calcium propionate; five days
[4] = tested on: R. solani; experiment: Plug transfer to PDA plates without calcium propionate (fungistatic or fungicidal); type: cell-based, Rhizoctonia solani
[5] = tested on: dollar spot; experiment: Golf Course 1: infected live turfgrass, visual inspection for dollar spot; type: in vivo, Scerotinia homoeocarpa
Experimental: Calcium propionate was dissolved in water to form a 5% (w/v) solution. […] Zone 1 was left untreated, Zone 2 was treated with 2.5 grams calcium propionate per square meter, Zone 3 was treated with 5 grams of calcium propionate per square meter, and Zone 4 was treated with 10 grams of calcium propionate per square meter. The turfgrass was comprised primarily of Festuca rubra. The calcium propionate 5% (w/v) solution was sprayed onto the turfgrass.
The four zones were visually inspected for dollar spot after 10 days. […] In contrast, dollar spot could, still be visually detected in untreated Zone 1.
Thereafter, all of the zones (1-4) were treated with 5 grams of calcium propionate per square meter. The calcium propionate 5% (w/v) solution was sprayed onto the turfgrass every 10 to 14 days.

[6] = tested on: G. graminis; experiment: Established liquid cultures, two days calcium propionate then washout; type: cell-based, Gaeumannomyces graminis
Experimental: To further examine the impact of calcium propionate on established liquid cultures, MEB was inoculated by plug transfer and cultures were allowed to grow for one to six days. Following this, calcium propionate was added to active cultures to a final concentration of 1%, 2%, or 5% (w/v); control cultures had no calcium propionate. Calcium propionate was then added to established one to six day old cultures and cultures were allowed to grow in the presence of calcium propionate for two days, after which, calcium propionate was washed out and cultures were returned to MEB only. Growth following calcium propionate washout was recorded over 14 days.

[7] = tested on: M. poae; type: cell-based, Magnaporthe poae
[8] = tested on: M. poae; type: cell-based, Magnaporthe poae; remark: listed apart in the source
[9] = tested on: G. graminis; experiment: Zone of inhibition assay on PDA plates; type: cell-based, Gaeumannomyces graminis
Experimental: To test the efficacy of calcium propionate (CaP) against the four microbes listed above, zone of inhibition assays were performed. Wells were bored in potato dextrose agarose (PDA) plates then amended with […] calcium propionate at concentrations of 0.1%, 0.2%, 0.3%, 0.4%, and 0.5% (w/v). Control plates were amended with […] dH2O. Plates were inoculated using plugs from active cultures. Growth patterns were observed over seven days. Representative results with M. poae are shown at three days following inoculation (FIG. 1A) and seven days following inoculation (FIG. 1B).
The zone of inhibition assays described in Example 1 were performed using calcium propionate doses of 0.5%, 1%, 2%, 3%, and 4% (w/v). Growth diameter was recorded at 2, 5, and 7 days post inoculation. The data shown in Table 1 represent the average±standard deviation (SD) of two replicate plates for each strain tested.
Zone of inhibition assays using PDA plates amended with 5-12% (w/v) calcium propionate were performed as described above. As a control, plates were amended with a composition comprising propiconazole, a commonly used fungicidal treatment for microbe infection of turfgrass, sold under the trademark Banner MaxxII®. Growth diameter was recorded for 13 days post inoculation. The data shown in Table 2 represent the average±standard deviation (SD) of three replicate plates for each strain tested. Inoculants of S. homoeocarpa, M. poae, and R. solani generally grow to luxuriant culture, covering the entire surface of the plate (8.5 cm growth) in 7 days.

[10] = tested on: M. poae; type: cell-based, Magnaporthe poae; remark: listed apart in the source
[11] = 1%, 2% or 5% (w/v), established one to six day old cultures, two days

CCC(=O)[O-].CCC(=O)[O-].[Ca+2] [calcium propionate]
growth in liquid culture, G. graminis [1]: no growth was observed | visual detection of Fusarium oxysporum infection [2]: could no longer be visually detected | growth of disrupted culture, M. poae [3]: No growth was observed | concentration required to achieve a fungicidal effect on R. solani [4]: 10-12 % (w/v) | fungistatic or fungicidal effect, R. solani ([4]; 5% (w/v) calcium propionate): fungistatic rather than fungicidal | growth on unamended PDA after plug transfer, R. solani ([4]; plugs from 5% and 7.5% (w/v) calcium propionate plates, 6-7 days following transfer): luxuriant growth | growth on unamended PDA after plug transfer, R. solani ([4]; plugs from 10% and 12% (w/v) calcium propionate plates): did not grow | visual detection of dollar spot ([5]; Zone 2: 2.5 grams per square meter, 5% (w/v) solution sprayed, after 10 days): could no longer be visually detected | visual detection of dollar spot ([5]; Zone 3: 5 grams per square meter, 5% (w/v) solution sprayed, after 10 days): could no longer be visually detected | visual detection of dollar spot ([5]; Zone 4: 10 grams per square meter, 5% (w/v) solution sprayed, after 10 days): could no longer be visually detected | visual detection of dollar spot ([5]; zones 1-4, 5 grams per square meter every 10 to 14 days, several months (late summer to early spring)): could not be visually detected | growth while calcium propionate was present, G. graminis [6, 11]: growth was inhibited | growth three days following removal of calcium propionate, G. graminis ([6]; all concentrations tested (1-5% w/v), data not shown): continued growth inhibition | growth up to two weeks following calcium propionate removal, G. graminis ([6]; concentrations as low as 1% (w/v)): no growth was observed | fungistatic or fungicidal effect, M. poae ([7]; 5% (w/v) calcium propionate): fungicidal effect | growth on unamended PDA after plug transfer, M. poae ([7]; plugs initially grown on 5, 7.5, 10 or 12% (w/v) calcium propionate, observed 14 days): No growth was seen | growth recovery over 14 days after removal, M. poae ([8]; 1% or 2% (w/v) calcium propionate): varying degrees of growth recovery | growth while calcium propionate was present, M. poae [8, 11]: growth was inhibited | growth recovery over 14 days after removal, M. poae ([8]; 5% (w/v) treatment): no growth recovery was observed | growth three days following removal of calcium propionate, M. poae ([8]; all concentrations tested (1-5% w/v)): continued growth inhibition | Growth, G. graminis ([9]; 5-12% (w/v) calcium propionate, day 2, average ± SD of three plates): 1.2 ± 0.3 cm | Growth, G. graminis ([9]; 5-12% (w/v) calcium propionate, day 3, average ± SD of three plates): 2.2 ± 0.3 cm | Growth, G. graminis ([9]; 5-12% (w/v) calcium propionate, day 6, average ± SD of three plates): 2.7 ± 0.3 cm | Growth, G. graminis ([9]; 5-12% (w/v) calcium propionate, day 7, average ± SD of three plates): 4.0±0.6 cm | Growth, G. graminis ([9]; 5-12% (w/v) calcium propionate, day 10, average ± SD of three plates): 5.9 ± 0.5 cm | Growth, G. graminis ([9]; 5-12% (w/v) calcium propionate, day 13, average ± SD of three plates): 8.3 ± 0.3 cm | growth inhibition, G. graminis ([9]; wells 0.1-0.5% (w/v) calcium propionate, observed over seven days): no growth inhibition was observed | growth inhibition, G. graminis ([9]; wells 0.5-4% (w/v) calcium propionate, 2 and 5 days post inoculation): growth inhibition | growth difference versus control plates, G. graminis ([9]; wells 0.5-4% (w/v) calcium propionate, 7 days post inoculation): no growth difference was observed | Growth, G. graminis ([9]; wells 0.5-4% (w/v) calcium propionate, day 2, average ± SD of two plates): 1.6 ± 0.1 cm | Growth, G. graminis ([9]; wells 0.5-4% (w/v) calcium propionate, day 5, average ± SD of two plates): 4.7 ± 0.2 cm | Growth, G. graminis ([9]; wells 0.5-4% (w/v) calcium propionate, day 7, average ± SD of two plates): 7 ± 0.1 cm | Growth, M. Poae ([10]; PDA with 5% (w/v) calcium propionate, day 4, single plate): 0 cm | Growth, M. Poae ([10]; PDA with 5% (w/v) calcium propionate, day 5, single plate): 0 cm | Growth, M. Poae ([10]; PDA with 5% (w/v) calcium propionate, day 8, single plate): 0 cm | Growth, M. Poae ([10]; PDA with 5% (w/v) calcium propionate, day 11, single plate): 0 cm | Growth, M. Poae ([10]; PDA with 5% (w/v) calcium propionate, day 15, single plate): 0 cm | Growth, M. Poae ([10]; PDA with 7.5% (w/v) calcium propionate, day 4, single plate): 0 cm | Growth, M. Poae ([10]; PDA with 7.5% (w/v) calcium propionate, day 5, single plate): 0 cm | Growth, M. Poae ([10]; PDA with 7.5% (w/v) calcium propionate, day 8, single plate): 0 cm | Growth, M. Poae ([10]; PDA with 7.5% (w/v) calcium propionate, day 11, single plate): 0 cm | Growth, M. Poae ([10]; PDA with 7.5% (w/v) calcium propionate, day 15, single plate): 0 cm | Growth, M. Poae ([10]; PDA with 10% (w/v) calcium propionate, day 4, single plate): 0 cm | Growth, M. Poae ([10]; PDA with 10% (w/v) calcium propionate, day 5, single plate): 0 cm | Growth, M. Poae ([10]; PDA with 10% (w/v) calcium propionate, day 8, single plate): 0 cm | Growth, M. Poae ([10]; PDA with 10% (w/v) calcium propionate, day 11, single plate): 0 cm | Growth, M. Poae ([10]; PDA with 10% (w/v) calcium propionate, day 15, single plate): 0 cm | Growth, M. Poae ([10]; PDA with 12% (w/v) calcium propionate, day 4, single plate): 0 cm | Growth, M. Poae ([10]; PDA with 12% (w/v) calcium propionate, day 5, single plate): 0 cm | Growth, M. Poae ([10]; PDA with 12% (w/v) calcium propionate, day 8, single plate): 0 cm | Growth, M. Poae ([10]; PDA with 12% (w/v) calcium propionate, day 11, single plate): 0 cm | Growth, M. Poae ([10]; PDA with 12% (w/v) calcium propionate, day 15, single plate): 0 cm | Growth, M. Poae ([10]; any of the concentrations tested (5, 7.5, 10, 12% w/v), 15 days): no growth
